Literature values, collected in publication PMC12661886, “A phase 1/2 study of DS-1594 menin inhibitor in relapsed/refractory acute leukemias” (Journal of Hematology & Oncology, 2025).

Legend:
QT and QTc intervals = tested on: QT and QTc intervals; design: method as in Investigator Brochure; conditions: predicted by exposure-response analysis; ref Investigator Brochure
[1] = tested on: R/R KMT2A-r ALL/AML/MPAL or R/R NPM1mut AML
[2] = tested on: R/R NPM1mut, NUP98-r, KMT2A-r AML; design: method as in earlier work
[3] = tested on: KMT2A-r and NPM1mut R/R AML; design: method as in doi:10.1182/blood-2024-194827
[4] = tested on: MV4;11 cells harboring KMT2A-r with CRISPR-Cas9 induced menin mutations; design: method as in doi:10.1182/blood-2024-208887; conditions: menin mutations except M327
[5] = tested on: cell lines of KMT2A-r leukemia harboring MEN1-M327I or MEN1-T349M; design: method as in PMID 38905635

COc1cc(-c2ccc(CN[C@H]3C[C@@H](O)[C@@H](N(C)c4ncnc5sc(CC(F)(F)F)cc45)C3)cc2)nnc1OC [DS-1594a]
plasma concentration to induce QTc interval prolongation by 10 milliseconds (QT and QTc intervals): around 1000 ng/mL

CCN(C(=O)c1cc(F)ccc1Oc1cncnc1N1CC2(CCN(C[C@H]3CC[C@H](NS(=O)(=O)CC)CC3)CC2)C1)C(C)C [revumenib]
grade 3 or higher QTc prolongation, patients [1]: 14%
median DOR, CR + CRh [1]: 6.4 months
median DOR, KMT2A-r acute leukemias with CR/CRh [1]: about 6 months
median duration of response (DOR), patients with an ORR [1]: 4.3 months
CR + CRh rate ([1]; AUGMENT 101): 23%
overall response rate (ORR) ([1]; AUGMENT 101): 63%
grade 3 or higher differentiation syndrome, patients ([1]; AUGMENT-101): 16%
overall DS rate ([1]; AUGMENT-101 study): about 28%
CR/CRh rate ([2]; SAVE regimen): 48%
consolidated with an HSCT ([2]; SAVE regimen): 39%
median duration of CR/CRh ([2]; about 9 months median follow-up): not achieved
ORR ([2]; combination with oral decitabine-cedazuridine and venetoclax): 82%

C=C1C[C@@H]2CC[C@H]1[C@@H](C(=O)N1CCC3(CC1)CN(c1ncncc1Oc1ccc(F)cc1C(=O)N(C(C)C)C(C)C)C3)N2 [Enzomenib]
All grade DS, patients [3]: 10.7%
Grade 3 or higher DS, patients [3]: about 7%
CR + CRh rate, KMT2A-r R/R AML ([3]; 200 mg or 300 mg BID): 30%
CR + CRh rate, NPM1mut R/R AML ([3]; 200 mg or 300 mg BID): 47%
ORR, KMT2A-r R/R AML ([3]; 200 mg or 300 mg BID): 65%
ORR, NPM1mut R/R AML ([3]; 200 mg or 300 mg BID): 59%

CCN(C(=O)c1cc(F)ccc1Oc1nncnc1N1CCC2(C1)CN([C@H](CCCN(C)CCOC)C(C)C)C2)C(C)C [bleximenib]
IC50 [4]: 3.3 nM
efficacy in menin-mutant cell lines [5]: showed efficacy

CNc1nc(NC2CCN(Cc3ccc4c(cc(C#N)n4C[C@H](C)N4CCN(S(C)(=O)=O)CC4)c3C)CC2)c2cc(CC(F)(F)F)sc2n1 [ziftomenib]
IC50 [4]: 22.2 nM
median DOR (R/R AML): 6.6 months
responses in the dose finding phase (R/R AML): no significant responses were observed
CR/CRh rate, R/R NPM1mut AML (R/R AML; 600 mg dose): 35%
patients achieving CR/CRh, NPM1mut AML previously treated with venetoclax (R/R AML; 600 mg dose): 5/7
all-grade DS (R/R AML; KOMET phase 1a and 1b (n = 83)): 21%
grade 3 DS (R/R AML; KOMET phase 1a and 1b (n = 83)): 14%
CR/CRh rate (R/R AML; RP2D 600 mg/day, phase 1b): 25%
